The results in this text go back to patent publication US20240174680A1, “CDK2 INHIBITORS AND METHODS OF USING THE SAME” (Cedilla Therapeutics, Inc., priority 2021, published 2024).

The target of this experiment is CDK2/Cyclin E1 (Homo sapiens, UniProt P24941). As to the kind of experiment: CDK2/Cyclin E1 Caliper LabChip EZ Reader mobility shift assay. Format: biochemical. More on the design: purchased Eurofins 14-475. The following applies: read-out: Caliper Assay (CDK2/CCNE1): IC50. An outline of the steps:
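Mobility-shift kinase assay: compound titrations preincubated 30 min with enzyme and ATP, reaction started with 5-FAM-QSPKKG-CONH2 peptide. Final 2.5 nM CDK2/Cyclin E1, 100 μM ATP, 1.5 μM peptide, HEPES pH 7.5; stopped with EDTA after 100 min. IC50 from four-parameter fit of normalized conversion ratio.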

As for `CNC(=O)[C@@H](NC(=O)[C@@H]1CN(C(=O)Cc2cn[nH]c2)CC12CN(C(=O)[C@H]1CC1(C)C)C2)[C@@H](C)OCc1ccccc1` [I-358], the IC50 was above 10000 nM.

As to `C[C@@H](OCC1CCOCC1)[C@@H](COC1CCC(F)(F)CC1)NC(=O)[C@@H]1CN(C(=O)c2cncs2)CC12CN(C(=O)[C@H]1CC1(C)C)C2` [I-312], the IC50 was 10 to 100 nM.

As to `C[C@@H](OCc1ccc(Cl)cc1)[C@@H](CO)NC(=O)[C@@H]1CN(C(=O)c2cncs2)CC12CN(C(=O)[C@H]1CC1(C)C)C2` [I-404], the IC50 fell in the range of 10 to 100 nM.

With `C[C@@H](OCC1CCC(F)(F)CC1)[C@H](NC(=O)[C@@H]1CN(C(=O)c2cn[nH]c2)CC12CN(C(=O)[C@H]1CC1(C)C)C2)C(=O)N1CCC(F)(F)CC1` [I-228A], the IC50 was at most 10 nM.

In the case of `COC[C@H]1CCCN(C(=O)[C@@H](NC(=O)[C@@H]2CN(C(=O)c3cncs3)CC23CN(C(=O)[C@H]2CC2(C)C)C3)[C@@H](C)OC[C@H]2CC[C@@H](OC)CC2)C1` [I-408], the IC50 fell in the range of 10 to 100 nM.

With `CC1(C)C[C@@H]1C(=O)N1CC2(CN(C(=O)c3cncs3)C[C@H]2C(=O)NC(c2cccc(C3CCOCC3)n2)C2CCCO2)C1` (stereo partly shown) [I-497], the IC50 lay in the range of 1000 to 10000 nM.

In the case of `C[C@@H](OCC1CCCCC1)[C@H](NC(=O)[C@@H]1CN(C(=O)c2cnn(Cc3ccccc3)c2)CC12CN(C(=O)[C@H]1CC1(C)C)C2)C(=O)N1CC[C@@H]1CN` [I-270], the IC50 lay within 10 to 100 nM.

Take `COC[C@H]1CCCN(C(=O)[C@@H](NC(=O)[C@@H]2CN(C(=O)c3cncs3)CC23CN(C(=O)[C@H]2CC2(C)C)C3)[C@@H](C)OC[C@H]2CC[C@H](OC)CC2)C1` [I-402]: the IC50 lay within 10 to 100 nM.

As to `C[C@@H](OCC1CCCCC1)[C@H](NC(=O)[C@@H]1CN(C(=O)c2cnn(Cc3ccccc3)c2)CC12CN(C(=O)[C@H]1CC1(C)C)C2)C(=O)NCC(C)(C)C(=O)O` [I-472], the IC50 was at most 10 nM.

In the case of `CNC(=O)[C@@H](NC(=O)[C@@H]1CN(C(=O)c2sc(Cl)nc2Cl)CC12CN(C(=O)[C@H]1CC1(C)C)C2)[C@@H](C)OCC1CCCCC1` [I-232A], the IC50 was 10 to 100 nM.

As to `CNC(=O)[C@@H](NC(=O)[C@H]1CN(C(=O)c2cnn(Cc3ccccc3)c2)CC12CN(C(=O)[C@H]1CC1(C)C)C2)[C@@H](C)OCC1CCOCC1` [I-119B], the IC50 was 1000 to 10000 nM.

As for `CNC(=O)C(NC(=O)[C@@H]1CN(C(=O)c2cncs2)CC12CN(C(=O)C(C)(C)C1CC1)C2)c1cccc(C2CCCCC2)n1` (stereo partly drawn) [I-410, (8S)—N-(1-(6-cyclohexylpyridin-2-yl)-2-(methylamino)-2-oxoethyl)-2-(2-cyclopropyl-2-methylpropanoyl)-6-(thiazole-5-carbonyl)-2,6-diazaspiro[3.4]octane-8-carboxamide], the IC50 is 10 to 100 nM.

As for `CNC(=O)[C@@H](NC(=O)[C@H]1CN(C(=O)c2cnc(COC(C)(C)C)s2)CC12CN(C(=O)[C@H]1CC1(C)C)C2)[C@@H](C)OCC1CCCCC1` [I-175B], the IC50 was 100 to 1000 nM.

With `CNC(=O)[C@@H](NC(=O)[C@@H]1CN(C(=O)c2cnn(Cc3ccccc3)c2)CC12CN(C(=O)[C@H]1CC1(C)C)C2)[C@@H](C)SCc1ccccc1` [I-368], the IC50 lay within 100 to 1000 nM.

`CNC(=O)[C@@H](NC(=O)[C@H]1CN(C(=O)c2cnn(Cc3ccccc3)c2)CC12CN(C(=O)CC(C)(C)C)C2)[C@@H](C)OCc1ccccc1` [I-62B]: the IC50 is above 10000 nM.

Regarding `CNC(=O)[C@@H](NC(=O)[C@@H]1CN(C(=O)c2cnn(Cc3ccccc3)c2)CC12CN(C(=O)C1C(C)(C)C1(C)C)C2)[C@@H](C)OCc1ccccc1` [I-89A], the IC50 fell in the range of 1000 to 10000 nM.

Turning to `CNC(=O)[C@@H](NC(=O)[C@H]1CN(C(=O)c2cnn(Cc3ccccc3)c2)CC12CN(C(=O)[C@H]1CC1(C)C)C2)[C@@H](C)OCCC1CCCCC1` [I-125B], the IC50 fell in the range of 10 to 100 nM.

For the compound `CNC(=O)[C@@H](NC(=O)[C@@H]1CN(C(=O)c2cnc(C(C)(C)C)s2)CC12CN(C(=O)[C@H]1CC1(C)C)C2)[C@@H](C)OCC1CCCCC1` [I-229A], the IC50 was above 10000 nM.

On to `C[C@@H](OCC1CCCCC1)[C@H](NC(=O)C1CN(C(=O)c2cnn(Cc3ccccc3)c2)CC12CN(C(=O)[C@H]1CC1(C)C)C2)C(=O)N1CCC(F)(F)CC1` (stereo partly shown) [I-149 mixture], for which the IC50 is at most 10 nM.

As to `CNC(=O)[C@@H](NC(=O)[C@H]1CN(C(=O)c2cnn(Cc3ccccc3)c2)CC12CN(C(=O)C(C)(C)C#N)C2)[C@@H](C)OCc1ccccc1` [I-76B], the IC50 is above 10000 nM.

Regarding `C[C@@H](OCC1CCCCC1)[C@H](NC(=O)[C@@H]1CN(C(=O)c2cnn(C(F)(F)F)c2)CC12CN(C(=O)[C@H]1CC1(C)C)C2)C(=O)N1CCCCC1` [I-115], the IC50 lay in the range of 100 to 1000 nM.

As to `C[C@@H](OCC1CCC(F)(F)CC1)[C@H](NC(=O)[C@@H]1CN(C(=O)c2cncs2)CC12CN(C(=O)[C@H]1CC1(C)C)C2)C(=O)N1CCC(C)(C)CC1` [I-386], the IC50 was at most 10 nM.

`COC[C@@H]1CCCN(C(=O)[C@@H](NC(=O)C2CN(C(=O)c3cncs3)CC23CN(C(=O)[C@H]2CC2(C)C)C3)[C@@H](C)OCC2CCCCC2)C1` (stereo partly shown) [I-195]: the IC50 was at most 10 nM.

As to `CNC(=O)[C@@H](NC(=O)[C@H]1CN(C(=O)c2cnn(Cc3ccccc3)c2)CC12CN(C(=O)C1(C3CC3)CC1)C2)[C@@H](C)OCc1ccccc1` [I-114B], the IC50 is above 10000 nM.

Take `C[C@@H](OCC1CCCCC1)[C@@H](COC1CCOCC1)NC(=O)[C@@H]1CN(C(=O)c2cncs2)CC12CN(C(=O)[C@H]1CC1(C)C)C2` [I-331]: the IC50 is at most 10 nM.

As for `COC1CCN(C(=O)[C@@H](NC(=O)[C@@H]2CN(C(=O)c3cncs3)CC23CN(C(=O)[C@H]2CC2(C)C)C3)[C@@H](C)OCC2CCC(F)(F)CC2)CC1` [I-385], the IC50 was at most 10 nM.

Regarding `Cc1ccc(CNC(=O)[C@@H]2CN(C(=O)c3cnc(Cc4ccccc4)s3)CC23CN(C(=O)[C@H]2CC2(C)C)C3)nn1` [I-405], the IC50 was above 10000 nM.

Regarding `CNC(=O)[C@@H](NC(=O)[C@@H]1CN(C(=O)c2cnn(Cc3ccccc3)c2)CC12CN(C(=O)Cc1ccccc1)C2)[C@@H](C)OCc1ccccc1` [I-25A, (S)-6-(1-benzyl-1H-pyrazole-4-carbonyl)-N-((2S,3R)-3-(benzyloxy)-1-(methylamino)-1-oxobutan-2-yl)-2-(2-phenylacetyl)-2,6-diazaspiro[3.4]octane-8-carboxamide], the IC50 is above 10000 nM.

For the compound `CC1(C)C[C@@H]1C(=O)N1CC2(CN(C(=O)c3cnn(Cc4ccccc4)c3)C[C@H]2C(=O)N[C@H]2CCN(c3ccccc3)C2)C1` [I-206], the IC50 was 100 to 1000 nM.

As for `CNC(=O)[C@@H](NC(=O)[C@H]1CN(C(=O)c2sc(Cl)nc2Cl)CC12CN(C(=O)[C@H]1CC1(C)C)C2)[C@@H](C)OCC1CCCCC1` [I-232B], the IC50 lay in the range of 1000 to 10000 nM.

In the case of `C[C@@H](OCC1CCC(F)(F)CC1)[C@H](NC(=O)[C@@H]1CN(C(=O)c2cn[nH]c2)CC12CN(C(=O)C1(C(F)(F)F)CC1)C2)C(=O)N1CCC(F)(F)CC1` [I-188A], the IC50 was 10 to 100 nM.

Consider `CNC(=O)[C@@H](NC(=O)[C@@H]1CN(C(=O)c2cnn(Cc3ccccc3)c2)CC12CN(C(=O)[C@H]1CC1(C)C)C2)[C@@H](C)OCc1cccc(O)c1` [I-262], for which the IC50 lay within 100 to 1000 nM.

As to `C[C@@H](OCc1ccc(C(F)(F)F)cc1)[C@H](NC(=O)[C@@H]1CN(C(=O)c2cncs2)CC12CN(C(=O)[C@H]1CC1(C)C)C2)C(=O)N1C2CCC1COC2` [I-470], the IC50 was at most 10 nM.

For `Cc1nc(C)c(C(=O)N2C[C@@H](C(=O)N[C@H](C(=O)N3CCC4(CC3)COC4)[C@@H](C)OCC34CCC(CC3)OC4)C3(C2)CN(C(=O)[C@H]2CC2(C)C)C3)s1` [I-343], the IC50 is at most 10 nM.

Take `CNC(=O)[C@@H](NC(=O)[C@@H]1CN(C(=O)c2cnn(Cc3ccccc3)c2)CC12CN(C(=O)N(C)C(C)C)C2)[C@@H](C)OCC1CCCCC1` [I-274, (S)-6-(1-benzyl-1H-pyrazole-4-carbonyl)-N8-((2S,3R)-3-(cyclohexylmethoxy)-1-(methylamino)-1-oxobutan-2-yl)-N2-isopropyl-N2-methyl-2,6-diazaspiro[3.4]octane-2,8-dicarboxamide]: the IC50 is 100 to 1000 nM.

As to `COC(=O)C1(NC(=O)[C@@H]2CN(C(=O)c3cnn(Cc4ccccc4)c3)CC23CN(C(=O)[C@H]2CC2(C)C)C3)COC1` [I-142B], the IC50 is above 10000 nM.

Regarding `CNC(=O)C(NC(=O)[C@@H]1CN(C(=O)c2cncs2)CC12CN(C(=O)[C@H]1CC1(C)C)C2)c1cccc(N2CCCCC2)n1` (stereo partly shown) [I-432], the IC50 lay within 100 to 1000 nM.

In the case of `COC(=O)[C@@H](CO)NC(=O)[C@H]1CN(C(=O)c2cnn(Cc3ccccc3)c2)CC12CN(C(=O)[C@H]1CC1(C)C)C2` [I-187B], the IC50 was above 10000 nM.

In the case of `CC1(C)C[C@@H]1C(=O)N1CC2(CN(C(=O)c3cnn(Cc4ccccc4)c3)C[C@@H]2C(=O)N[C@H]2C[C@@H]2c2cccc(Cl)c2)C1` [I-140B], the IC50 is above 10000 nM.

As for `CNC(=O)[C@@H](NC(=O)[C@@H]1CN(C(=O)c2cnn(Cc3ccccc3)c2)CC12CN(C(=O)[C@H]1CC1(C)C)C2)[C@@H](C)OCC1CCC1` [I-144A], the IC50 was 10 to 100 nM.

Turning to `CC1(C)C[C@@H]1C(=O)N1CC2(CN(C(=O)c3cnn(Cc4ccccc4)c3)C[C@@H]2C(=O)Nc2cccc(-c3ccccc3)c2)C1` [I-63B], the IC50 fell in the range of 1000 to 10000 nM.

For the compound `CCCC(=O)N1CC2(C1)CN(C(=O)c1cnn(Cc3ccccc3)c1)C[C@@H]2C(=O)N[C@H](C(=O)NC)[C@@H](C)OCc1ccccc1` [I-60B], the IC50 was above 10000 nM.

As to `CC1(C)C[C@@H]1C(=O)N1CC2(CN(C(=O)c3cnn(Cc4ccccc4)c3)C[C@H]2C(=O)N[C@H]2CCc3cc(Cl)ccc32)C1` [I-120A], the IC50 lay in the range of 100 to 1000 nM.

Turning to `CNC(=O)[C@@H](NC(=O)[C@H]1CN(C(=O)c2cnc(C(F)(F)F)s2)CC12CN(C(=O)[C@H]1CC1(C)C)C2)[C@@H](C)OCC1CCCCC1` [I-161B], the IC50 was above 10000 nM.

For `CNC(=O)[C@@H](NC(=O)[C@@H]1CN(C(=O)c2cnn(Cc3ccccc3)c2)CC12CN(C(=O)[C@H]1CC1(C)C)C2)[C@@H](C)OCC12CC(C(=O)OC)(C1)C2` [I-299], the IC50 was 10 to 100 nM.

`CC1(C)C[C@@H]1C(=O)N1CC2(CN(C(=O)c3cnn(Cc4ccccc4)c3)C[C@H]2C(=O)NCc2cccnn2)C1` [I-359]: the IC50 was above 10000 nM.
